Calls of active or inactive are those of the source.
Assays:
[1] = molecular target: Delta-type opioid receptor (Homo sapiens, UniProt P41143); assay: Counterscreen for agonists of heterodimerization of the mu 1 (OPRM1) and delta 1 (OPRD1) opioid receptors: Luminescence-based cell-based high throughput dose response assay to identify agonists of OPRD1 homodimerization. [Related pubchem assays (depositor defined):AID504326, AID504355, AID504692, AID504904, AID504905]; type: functional
[2] = molecular target: 5-hydroxytryptamine receptor 5A (Homo sapiens, UniProt P47898); assay: Counterscreen for agonists of OPRM1-OPRD1 heterodimerization: luminescence-based cell-based high throughput dose response assay to identify agonists of 5-hydroxytryptamine (serotonin) 5A receptor (HTR5A). [Related pubchem assays (depositor defined):AID504326, AID504355, AID504692, AID504904, AID504905]; type: functional
Mu-type opioid receptor = Mu-type opioid receptor (Homo sapiens, UniProt P35372); assay: Counterscreen for agonists of heterodimerization of the mu 1 (OPRM1) and delta 1 (OPRD1) opioid receptors: Luminescence-based cell-based high throughput dose response assay to identify agonists of OPRM1 homodimerization.; type: functional;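 note: U2OS cells expressing OPRM1 and beta-arrestin as split beta-galactosidase partners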
Escherichia coli = assay: microbe, parasite or virus in culture
CAAX prenyl protease 2 = CAAX prenyl protease 2 (Homo sapiens, UniProt Q9Y256); assay: human Rce1 protease inhibitors, dose response, biochemical, yeast membranes, quenched-peptide fluorescence, cherry-pick (AID 588849)
[3] = cytotoxicity toward NIH3T3 fibroblasts, dose response, counter-screen, cell-based, ATP luminescence, mouse fibroblasts (AID 2010); type: functional;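 note: cells exposed to compound for about 90 hours before reading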
Phospholipase A2 = Phospholipase A2 (Homo sapiens, UniProt P04054); type: functional;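 note: confirmatory dose-response counterscreen on phospholipase A2, testing hits that came from an ultra-high-throughput screen for ATG4B inhibitors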
X-box-binding protein 1 = X-box-binding protein 1 (Homo sapiens, UniProt P17861); type: functional, Cricetulus griseus;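 note: confirmatory dose-response counter-screen serving a CHOP assay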
Vero [4] = assay: host cell cytotoxicity of antiviral hits, dose response, cytotoxicity control for West Nile virus antiviral project, secondary assay (AID 1650); type: functional; conditions: Chlorocebus sabaeus
[5] = miR-122 activators in hepatoma reporter cells, dose response, cell-based, Huh7 psiCHECK-miR122, Renilla luciferase, cherry-picked (AID 651956); type: functional;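 note: huh7 hepatoma cells stably carrying a psiCHECK-2 miR-122 sensor plasmid; renilla luciferase signal reporting endogenous miR-122 activity after 48 h compound exposure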
Cysteine protease ATG4B = molecular target: T1, Cysteine protease ATG4B (Homo sapiens, UniProt Q9Y4P1); type: functional;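 note: Fluorescence-based dose-response confirmation assay measuring inhibition of ATG4B activity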
T1 sequence (Q9Y4P1 whole entry): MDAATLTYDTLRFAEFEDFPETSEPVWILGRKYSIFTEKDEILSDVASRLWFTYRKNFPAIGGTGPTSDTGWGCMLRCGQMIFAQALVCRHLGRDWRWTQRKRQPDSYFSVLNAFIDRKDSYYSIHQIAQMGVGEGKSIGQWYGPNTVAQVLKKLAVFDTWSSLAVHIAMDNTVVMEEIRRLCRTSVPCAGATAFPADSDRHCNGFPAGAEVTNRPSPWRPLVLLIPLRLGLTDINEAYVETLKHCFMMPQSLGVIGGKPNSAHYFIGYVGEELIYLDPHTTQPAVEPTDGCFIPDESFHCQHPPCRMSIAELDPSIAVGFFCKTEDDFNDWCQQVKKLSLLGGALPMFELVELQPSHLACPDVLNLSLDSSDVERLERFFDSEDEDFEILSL

[6] = HEK293T cytotoxicity, dose response, cytotoxicity control for miR-122 modulator project, cell-based, activator set, cherry-pick (AID 720690); type: functional;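 note: HEK293T human cells scored for general mammalian cytotoxicity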
[7] = molecular target: DNA damage-inducible transcript 3 protein (Mus musculus, UniProt P35639); type: functional, Cricetulus griseus
[8] = inhibitors of intracellular T. cruzi replication, confirmation, NIH3T3 host cells, beta-gal luminescence (AID 2044); type: functional, cell-based;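 note: intracellular parasites grown in NIH/3T3 mouse fibroblasts as host cells; luminescent beta-galactosidase reporter signal from transgenic T. cruzi replicating inside host cells; inhibitors lower the luminescence signal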
[9] = HEK293T cytotoxicity, dose response, cytotoxicity control for miR-122 modulator project, cell-based, inhibitor set, cherry-pick, set 2 (AID 720697); type: functional
Streptokinase A = molecular target: T2, Streptokinase A (Streptococcus pyogenes serotype M1, UniProt P10520); assay: S. pyogenes streptokinase expression inhibitors, potency, dose response, plasminogen activation absorbance, OD405 (AID 1914); type: functional, Streptococcus pyogenes M1 GAS;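 note: secreted streptokinase activity via plasminogen activation per viability signal from cell pellet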
T2 sequence (P10520 whole entry): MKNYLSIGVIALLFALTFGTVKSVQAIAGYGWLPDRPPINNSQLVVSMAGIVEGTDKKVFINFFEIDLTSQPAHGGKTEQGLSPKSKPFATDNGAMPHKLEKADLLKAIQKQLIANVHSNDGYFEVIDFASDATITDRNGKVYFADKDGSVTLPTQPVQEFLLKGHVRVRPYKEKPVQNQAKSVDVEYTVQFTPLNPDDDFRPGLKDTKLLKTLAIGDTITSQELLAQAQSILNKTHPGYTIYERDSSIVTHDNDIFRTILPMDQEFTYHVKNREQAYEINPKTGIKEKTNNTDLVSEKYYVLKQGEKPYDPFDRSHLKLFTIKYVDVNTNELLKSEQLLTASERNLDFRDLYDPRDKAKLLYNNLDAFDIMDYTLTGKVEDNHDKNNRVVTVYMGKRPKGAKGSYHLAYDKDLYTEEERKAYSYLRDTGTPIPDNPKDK

[10] = molecular target: Type-1 angiotensin II receptor (Homo sapiens, UniProt P30556); assay: AT1 receptor antagonists, dose response, selectivity assay for APJ receptor antagonist project, cell-based, uHTS hits (AID 463214); type: functional;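 note: antagonist potency against angiotensin II stimulated AT1 response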
Streptococcus = assay: Group A Streptococcus viability loss, dose response, counter-screen for streptokinase expression inhibitor project, luminescence, BacTiterGlo (AID 1915); type: functional, organism-based;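 note: potency for reduction of bacterial viability or growth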
[11] = tested on: Streptococcus sp. 'group A'; assay: growth inhibition of control SK(-) GAS strain, dose response, counter-screen for streptokinase expression inhibitor project, luminescence, kanamycin, BacTiterGlo, confirmation (AID 1900); type: functional, organism-based
Beta-galactosidase [12] = molecular target: T3, Beta-galactosidase (Escherichia coli, UniProt Q8VNN2); assay: PubChem AID 485352; type: functional
Caspase-6 = molecular target: T4, Caspase-6 (Homo sapiens, UniProt P55212); assay: human caspase-6 inhibitors, dose response, biochemical, VEID-R110 fluorescence, cherry-pick (AID 720632)
T4 sequence (P55212 whole entry): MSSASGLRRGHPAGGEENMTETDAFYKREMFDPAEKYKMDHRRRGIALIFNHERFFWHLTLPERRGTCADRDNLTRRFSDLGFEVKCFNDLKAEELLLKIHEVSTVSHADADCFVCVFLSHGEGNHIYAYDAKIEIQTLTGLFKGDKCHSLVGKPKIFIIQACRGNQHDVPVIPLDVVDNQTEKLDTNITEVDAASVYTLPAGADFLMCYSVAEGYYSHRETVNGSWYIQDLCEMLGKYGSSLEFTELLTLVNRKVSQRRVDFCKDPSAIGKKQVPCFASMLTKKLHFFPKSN

[13] = molecular target: Voltage-gated inwardly rectifying potassium channel KCNH2 (Homo sapiens, UniProt Q12809); conditions: Potency;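 note: confirmatory quantitative high-throughput screen measuring inhibition of hERG channel activity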
[14] = molecular target: T5, Kappa-type opioid receptor (Homo sapiens, UniProt P41145); type: functional
cells [15] = type: functional
[16] = HEK293 cell cytotoxicity, dose response, cytotoxicity control, plate reader, cherry-picked samples (AID 743446); type: functional, cell-based
[17] = molecular target: T5, Kappa-type opioid receptor; type: functional; remark: listed apart in the source
[18] = HepG2 cell cytotoxicity, dose response, cytotoxicity control for Shn3 inhibitor project, CellTiter-Glo, cherry-picked (AID 624134); type: functional, cell-based
INS1 = assay: beta cell apoptosis inhibitors, cytokine rescue, dose response, luminescence, retest (AID 449756); type: functional, cell-based; conditions: Rattus norvegicus;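 note: cell death triggered by IL-1 beta plus TNF-alpha plus IFN-gamma mixture; protective hits raise ATP signal compared with cytokine alone wells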
Protein skinhead-1 = molecular target: T6, Protein skinhead-1 (Caenorhabditis elegans, UniProt P34707); type: functional
T6 sequence (P34707 whole entry): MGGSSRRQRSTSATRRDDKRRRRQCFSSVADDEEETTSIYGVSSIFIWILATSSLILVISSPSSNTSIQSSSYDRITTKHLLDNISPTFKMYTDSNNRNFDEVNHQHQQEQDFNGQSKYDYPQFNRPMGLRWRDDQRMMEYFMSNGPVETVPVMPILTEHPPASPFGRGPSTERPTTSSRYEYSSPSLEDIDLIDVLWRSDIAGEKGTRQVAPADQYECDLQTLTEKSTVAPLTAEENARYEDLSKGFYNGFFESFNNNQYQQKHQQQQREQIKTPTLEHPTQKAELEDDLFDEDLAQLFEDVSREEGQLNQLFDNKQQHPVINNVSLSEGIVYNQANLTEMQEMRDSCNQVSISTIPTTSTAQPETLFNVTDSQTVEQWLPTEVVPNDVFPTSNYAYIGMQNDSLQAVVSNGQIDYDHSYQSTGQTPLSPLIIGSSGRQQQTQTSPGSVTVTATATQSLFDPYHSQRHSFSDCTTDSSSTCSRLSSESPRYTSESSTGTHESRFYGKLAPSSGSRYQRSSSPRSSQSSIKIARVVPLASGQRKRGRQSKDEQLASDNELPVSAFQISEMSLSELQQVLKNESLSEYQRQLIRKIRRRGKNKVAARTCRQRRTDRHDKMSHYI

[19] = THP-1 cell cytotoxicity, dose response, cytotoxicity control for non-replicating M. tuberculosis project (AID 489025); type: functional
cells [20] = type: functional, cell-based
BJ [21] = assay: cytotoxicity toward BJ-TERT fibroblasts, dose response, cell-based, RAS-independent, luminescence (AID 1933); type: functional; conditions: Homo sapiens
Vero [22] = assay: cells; type: functional, cell-based; conditions: Chlorocebus sabaeus
[23] = control 3'UTR Renilla luciferase suppression, dose response, counter-screen for Shn3 inhibitor project, cell-based, Clone20-Shn3RL, cherry-picked (AID 624133); type: functional
[24] = HepG2 cell cytotoxicity, dose response, cytotoxicity control for non-replicating M. tuberculosis project (AID 489018); type: functional; conditions: Mycobacterium tuberculosis
Vero [25] = assay: cells; type: functional; conditions: Chlorocebus sabaeus
cells [26] = type: functional, cell-based; remark: listed apart in the source
[27] = Vero E6 cell cytotoxicity, dose response, cytotoxicity control for non-replicating M. tuberculosis project, secondary assay (AID 492998); type: functional, VeroE6; conditions: Vero C1008
[28] = cytotoxicity toward DRD oncogenic fibroblasts, dose response, cell-based, non-viral oncogenic, luminescence (AID 1934); type: functional; conditions: Homo sapiens
Beta-galactosidase [29] = molecular target: T3, Beta-galactosidase; type: functional
[30] = A549 cell cytotoxicity, dose response, cytotoxicity control, plate reader, cherry-pick, antagonist series (AID 743412); type: functional, cell-based
[31] = MC4R antagonists, dose response, counter-screen for LGR2 antagonist project, cell-based, plate reader, cherry pick (AID 743444); type: functional;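 note: transfected HEK 293 cells stimulated with alpha-MSH peptide; potency of inhibitors of the alpha-MSH evoked signal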
BJ [32] = assay: cytotoxicity toward BJ-TERT-LT-ST fibroblasts, dose response, cell-based, RAS-independent, luminescence (AID 1935); type: functional; conditions: Homo sapiens;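 note: BJ fibroblasts immortalized with TERT plus LT and ST oncogenes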
[33] = HepG2 cell cytotoxicity, dose response, cytotoxicity control, plate reader, cherry-pick, antagonist series (AID 743416); type: functional, cell-based
[34] = LGR2 antagonists, dose response, cell-based, HEK293, CRE-luciferase reporter, cherry pick, set 2 (AID 743343); type: functional;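 note: transfected cells were stimulated with diluted bursicon conditioned medium after compound addition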
BJ [35] = assay: cells; type: functional, cell-based; conditions: Homo sapiens
[36] = Shn3 3'UTR reporter inhibitors, dose response, cell-based, Clone20 osteoblasts, firefly luciferase, cherry-picked (AID 624132); type: functional;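 note: firefly luciferase luminescence from reporter carrying the Shn3 3'UTR in osteoblasts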

T3 sequence (Q8VNN2 whole entry): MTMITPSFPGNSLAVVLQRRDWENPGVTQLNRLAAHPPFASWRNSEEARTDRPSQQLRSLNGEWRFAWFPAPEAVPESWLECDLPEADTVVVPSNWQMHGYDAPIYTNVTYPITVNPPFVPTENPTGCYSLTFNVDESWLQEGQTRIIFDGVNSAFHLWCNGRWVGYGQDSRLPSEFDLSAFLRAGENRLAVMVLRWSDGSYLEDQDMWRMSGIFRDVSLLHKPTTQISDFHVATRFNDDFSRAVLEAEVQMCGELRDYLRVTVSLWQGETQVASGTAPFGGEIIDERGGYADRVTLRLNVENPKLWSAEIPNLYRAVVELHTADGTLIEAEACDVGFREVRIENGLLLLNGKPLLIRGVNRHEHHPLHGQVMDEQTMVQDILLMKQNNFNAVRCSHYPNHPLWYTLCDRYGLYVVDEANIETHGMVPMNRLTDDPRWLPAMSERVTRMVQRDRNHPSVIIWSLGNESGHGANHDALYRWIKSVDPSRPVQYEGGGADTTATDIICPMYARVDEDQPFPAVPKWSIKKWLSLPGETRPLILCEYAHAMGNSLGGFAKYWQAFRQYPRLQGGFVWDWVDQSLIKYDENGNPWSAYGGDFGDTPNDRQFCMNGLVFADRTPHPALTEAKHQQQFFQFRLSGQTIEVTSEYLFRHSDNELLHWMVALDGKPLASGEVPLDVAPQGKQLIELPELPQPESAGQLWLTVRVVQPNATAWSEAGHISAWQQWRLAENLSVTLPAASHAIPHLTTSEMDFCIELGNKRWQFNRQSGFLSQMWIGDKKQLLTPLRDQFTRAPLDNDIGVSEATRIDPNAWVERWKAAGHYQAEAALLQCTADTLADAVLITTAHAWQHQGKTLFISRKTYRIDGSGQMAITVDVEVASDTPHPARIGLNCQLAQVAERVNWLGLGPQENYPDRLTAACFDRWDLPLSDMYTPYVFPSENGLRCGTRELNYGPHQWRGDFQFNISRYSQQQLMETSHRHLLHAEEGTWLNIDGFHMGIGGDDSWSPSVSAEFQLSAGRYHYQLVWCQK
Sequence of 5-hydroxytryptamine receptor 5A (P47898 whole entry): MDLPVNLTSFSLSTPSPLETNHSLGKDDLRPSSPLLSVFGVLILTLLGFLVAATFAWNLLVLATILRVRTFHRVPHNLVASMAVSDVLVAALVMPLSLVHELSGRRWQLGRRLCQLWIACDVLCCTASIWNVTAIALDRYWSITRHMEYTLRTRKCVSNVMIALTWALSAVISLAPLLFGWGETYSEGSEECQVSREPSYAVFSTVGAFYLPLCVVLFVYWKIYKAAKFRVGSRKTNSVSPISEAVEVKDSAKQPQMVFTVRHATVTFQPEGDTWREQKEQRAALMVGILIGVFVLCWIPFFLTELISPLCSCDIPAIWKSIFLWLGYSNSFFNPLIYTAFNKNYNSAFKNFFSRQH
Sequence of CAAX prenyl protease 2 (Q9Y256 whole entry): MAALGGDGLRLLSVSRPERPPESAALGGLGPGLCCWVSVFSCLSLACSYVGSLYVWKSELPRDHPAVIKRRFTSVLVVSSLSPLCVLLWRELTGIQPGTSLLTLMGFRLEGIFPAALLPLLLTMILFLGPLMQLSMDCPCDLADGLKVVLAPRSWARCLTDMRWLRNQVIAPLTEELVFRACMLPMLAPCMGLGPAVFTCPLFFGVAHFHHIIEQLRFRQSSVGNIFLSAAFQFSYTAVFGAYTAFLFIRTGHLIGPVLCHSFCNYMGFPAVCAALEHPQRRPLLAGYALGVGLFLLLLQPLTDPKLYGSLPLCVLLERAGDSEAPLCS
Sequence of Type-1 angiotensin II receptor (P30556 whole entry): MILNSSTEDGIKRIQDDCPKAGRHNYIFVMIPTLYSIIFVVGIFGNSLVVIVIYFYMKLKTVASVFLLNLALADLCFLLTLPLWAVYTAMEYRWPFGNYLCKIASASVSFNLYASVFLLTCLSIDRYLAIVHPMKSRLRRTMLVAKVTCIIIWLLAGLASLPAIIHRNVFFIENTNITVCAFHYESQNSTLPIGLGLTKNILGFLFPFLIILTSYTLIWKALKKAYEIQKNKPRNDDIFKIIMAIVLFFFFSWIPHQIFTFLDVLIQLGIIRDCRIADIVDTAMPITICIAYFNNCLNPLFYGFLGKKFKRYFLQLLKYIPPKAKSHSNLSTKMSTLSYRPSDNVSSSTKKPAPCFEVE
Sequence of Delta-type opioid receptor (P41143 whole entry): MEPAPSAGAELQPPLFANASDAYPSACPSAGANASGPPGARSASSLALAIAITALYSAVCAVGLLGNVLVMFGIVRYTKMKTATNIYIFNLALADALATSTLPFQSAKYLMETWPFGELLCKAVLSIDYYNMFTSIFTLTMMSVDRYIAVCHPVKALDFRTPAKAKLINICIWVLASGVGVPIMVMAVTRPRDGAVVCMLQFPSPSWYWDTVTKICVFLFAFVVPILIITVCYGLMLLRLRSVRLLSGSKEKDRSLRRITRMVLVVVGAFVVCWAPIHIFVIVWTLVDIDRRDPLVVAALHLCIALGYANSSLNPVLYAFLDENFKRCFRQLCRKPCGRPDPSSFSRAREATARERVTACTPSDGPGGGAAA
T5 sequence (P41145 whole entry): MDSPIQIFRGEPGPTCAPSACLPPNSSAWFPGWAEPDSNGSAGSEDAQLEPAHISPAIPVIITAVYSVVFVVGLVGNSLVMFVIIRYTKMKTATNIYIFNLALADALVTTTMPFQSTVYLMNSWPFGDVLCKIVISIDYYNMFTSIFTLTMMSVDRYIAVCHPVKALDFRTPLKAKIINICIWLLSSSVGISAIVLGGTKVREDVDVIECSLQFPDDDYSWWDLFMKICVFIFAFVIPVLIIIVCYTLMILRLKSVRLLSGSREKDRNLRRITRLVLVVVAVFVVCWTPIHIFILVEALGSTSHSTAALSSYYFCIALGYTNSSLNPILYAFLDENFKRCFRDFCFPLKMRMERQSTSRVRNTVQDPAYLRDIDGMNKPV
Sequence of Mu-type opioid receptor (P35372 whole entry): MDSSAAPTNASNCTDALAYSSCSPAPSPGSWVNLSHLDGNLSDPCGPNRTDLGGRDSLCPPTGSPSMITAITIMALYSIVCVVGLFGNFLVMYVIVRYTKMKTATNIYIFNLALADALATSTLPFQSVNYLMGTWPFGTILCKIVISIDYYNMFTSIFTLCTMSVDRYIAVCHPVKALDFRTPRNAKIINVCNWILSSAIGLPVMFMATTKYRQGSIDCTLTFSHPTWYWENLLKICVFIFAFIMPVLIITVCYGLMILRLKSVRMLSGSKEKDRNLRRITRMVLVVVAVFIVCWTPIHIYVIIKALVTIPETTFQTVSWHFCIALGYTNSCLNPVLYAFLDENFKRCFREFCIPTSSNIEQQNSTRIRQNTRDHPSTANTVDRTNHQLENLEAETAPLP
Sequence of X-box-binding protein 1 (P17861 whole entry): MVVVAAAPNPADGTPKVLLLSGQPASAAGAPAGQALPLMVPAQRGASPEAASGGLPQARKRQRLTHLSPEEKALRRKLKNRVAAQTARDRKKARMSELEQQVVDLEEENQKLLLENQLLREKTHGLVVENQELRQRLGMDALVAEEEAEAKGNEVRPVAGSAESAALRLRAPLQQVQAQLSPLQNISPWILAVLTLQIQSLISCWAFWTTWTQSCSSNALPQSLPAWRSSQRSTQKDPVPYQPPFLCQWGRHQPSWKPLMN
Sequence of Voltage-gated inwardly rectifying potassium channel KCNH2 (Q12809 whole entry): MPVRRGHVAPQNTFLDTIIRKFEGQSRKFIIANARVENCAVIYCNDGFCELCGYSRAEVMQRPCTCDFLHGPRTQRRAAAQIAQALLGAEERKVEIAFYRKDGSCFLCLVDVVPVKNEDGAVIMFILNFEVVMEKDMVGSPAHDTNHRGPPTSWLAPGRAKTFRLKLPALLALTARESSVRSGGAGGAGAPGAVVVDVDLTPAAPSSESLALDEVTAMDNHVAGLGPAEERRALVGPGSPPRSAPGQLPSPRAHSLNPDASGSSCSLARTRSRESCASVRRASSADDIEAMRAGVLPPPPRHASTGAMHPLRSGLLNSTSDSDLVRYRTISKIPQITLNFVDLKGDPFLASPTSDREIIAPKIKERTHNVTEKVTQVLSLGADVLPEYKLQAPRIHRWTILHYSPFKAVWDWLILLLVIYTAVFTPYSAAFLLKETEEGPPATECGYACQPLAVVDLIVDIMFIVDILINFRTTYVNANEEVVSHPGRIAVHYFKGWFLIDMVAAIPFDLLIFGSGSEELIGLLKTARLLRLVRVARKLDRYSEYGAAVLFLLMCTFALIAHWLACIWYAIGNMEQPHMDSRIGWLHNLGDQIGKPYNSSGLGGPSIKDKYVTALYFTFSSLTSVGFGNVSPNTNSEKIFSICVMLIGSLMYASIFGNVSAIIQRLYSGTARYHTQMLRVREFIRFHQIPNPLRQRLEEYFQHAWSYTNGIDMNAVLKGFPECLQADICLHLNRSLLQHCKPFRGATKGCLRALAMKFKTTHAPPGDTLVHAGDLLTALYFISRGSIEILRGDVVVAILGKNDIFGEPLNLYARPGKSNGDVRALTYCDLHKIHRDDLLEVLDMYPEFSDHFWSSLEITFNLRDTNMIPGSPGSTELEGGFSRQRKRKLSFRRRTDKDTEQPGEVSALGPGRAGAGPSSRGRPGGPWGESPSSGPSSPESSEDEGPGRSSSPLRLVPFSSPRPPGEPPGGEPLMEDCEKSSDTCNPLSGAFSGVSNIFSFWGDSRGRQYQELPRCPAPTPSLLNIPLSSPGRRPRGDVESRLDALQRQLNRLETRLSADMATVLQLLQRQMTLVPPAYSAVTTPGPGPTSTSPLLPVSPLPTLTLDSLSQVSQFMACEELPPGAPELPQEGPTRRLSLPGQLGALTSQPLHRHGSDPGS
Sequence of DNA damage-inducible transcript 3 protein (P35639 whole entry): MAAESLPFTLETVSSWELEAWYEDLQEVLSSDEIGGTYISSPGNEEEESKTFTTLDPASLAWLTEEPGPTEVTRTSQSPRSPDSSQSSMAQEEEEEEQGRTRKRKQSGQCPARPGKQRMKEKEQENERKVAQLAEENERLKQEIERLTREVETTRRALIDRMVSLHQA
Sequence of Phospholipase A2 (P04054 whole entry): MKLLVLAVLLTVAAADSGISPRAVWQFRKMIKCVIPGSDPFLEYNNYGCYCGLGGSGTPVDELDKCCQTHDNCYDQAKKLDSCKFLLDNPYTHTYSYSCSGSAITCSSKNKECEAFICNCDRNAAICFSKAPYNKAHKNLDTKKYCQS

With CCOC(=O)C1(CC2CCCCO2)CCN(Cc2ccc(OC)cc2F)CC1 (centres undefined) the EC50 [1] was > 92.5 µM (inactive), the EC50 [2] was > 92.5 µM (inactive) and the EC50 (Mu-type opioid receptor) was > 92.5 µM (inactive).
In the case of O=C(CN1CCCCC1)Nc1cc(Cl)ccc1Cl, the AC50 (Escherichia coli) is reported as 144 µM (active).
For O=C(CCNS(=O)(=O)c1ccc2nc(O)oc2c1)NCc1ccccc1, the AC50 (CAAX prenyl protease 2) was > 100 µM (inactive).
With Clc1ccc2c(N/N=C/c3ccccc3Br)ccnc2c1 the EC50 [3] was > 60 µM (not active), the IC50 (Phospholipase A2) was 1.75 µM (active) and the “Absolute IC50 (XBP1)” value (X-box-binding protein 1) was 10 µM. The CC50 (Vero [4]) was 7.23 µM (active), the AC50 [5] was 39.6 µM (active) and the EC50 [1] was > 92.5 µM (inactive). For the same compound, the EC50 [2] was > 92.5 µM (inactive), the IC50 (Cysteine protease ATG4B) was 3.17 µM (active) and the EC50 (Mu-type opioid receptor) was > 92.5 µM (inactive). The AC50 [6] was 16 µM (active), the “Absolute IC50 (CHOP)” value [7] was 10 µM and the EC50 [8] was 1.02 µM (active). The AC50 [9] was 7.49 µM (active).
For Cc1ccc(NNC(=O)c2cc(C(C)(C)C)nn2Cc2ccccc2)cc1, the EC50 (Streptokinase A) was 29.5 µM (active), the IC50 [10] was 3.81 µM (active) and the EC50 (Streptococcus) was > 150 µM (not active). For the same compound, the EC50 [11] was 17.5 µM (active) and the EC50 (Beta-galactosidase [12]) was > 40 µM (inactive).
With O=C(N/N=C/c1cn(Cc2ccccc2)c2ccccc12)c1cc(O)cc(O)c1 the AC50 (Caspase-6) was 3.09 µM (active) and the AC50 (CAAX prenyl protease 2) was 12.6 µM (active).
For N#CC(Cc1ccc(O)c(O)c1)C(=O)N1CCc2ccccc21 (centres undefined), the AC50 [13] was 15.8 µM (inconclusive).
For Cc1csc(NC(=O)c2c(-c3c(Cl)cccc3Cl)noc2C)n1, the AC50 (Escherichia coli) was 32.8 µM (active).
With O=C(Nc1nc2c(F)cc(F)cc2s1)c1ccccn1 the IC50 [14] was 8.25 µM (active), the IC50 (cells [15]) was 0.42 µM (active) and the AC50 [16] was 10.8 µM (active). For the same compound, the IC50 [17] was greater than 32 µM, the AC50 [18] was 15.2 µM (active) and the AC50 (INS1) was 2.08 µM (active). The IC50 (Protein skinhead-1) was > 100 µM (inactive), the CC50 [19] was 2.14 µM (active) and the EC50 (cells [20]) was > 350 µM (not active). For the same compound, the EC50 (BJ [21]) was 11.2 µM (active), the IC50 [10] was 9.46 µM (active) and the IC50 (Vero [22]) was > 25 µM (active). For the same compound, the AC50 [23] was 2.21 µM (active), the CC50 [24] was 4.95 µM (active) and the CC50 (Vero [25]) was 7.89 µM (active). The EC50 (cells [26]) was 7.18 µM (active), the CC50 [27] was 2.12 µM (active) and the EC50 [28] was 1.63 µM (active). For the same compound, the EC50 (Beta-galactosidase [29]) was > 31.5 µM (inactive), the AC50 [30] was 2.66 µM (active) and the AC50 [31] was 3.17 µM (active). For the same compound, the EC50 (BJ [32]) was > 150 µM (not active), the AC50 [33] was 2.09 µM (active) and the AC50 [34] was 4.05 µM (active). The EC50 (BJ [35]) was 78.2 µM (active), the AC50 [36] was 6.69 µM (active) and the EC50 (Beta-galactosidase [12]) was > 40 µM (inactive).
